Results published in PubChem BioAssay (NCI).
Several values for one entry are separate records, joined by “and”; a condition that tells them apart may be missing. Equal values may be shown once.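 Interpolation was linear, between the two tested concentrations surrounding the appropriate level; five concentrations were tested over 48 hours in 96-well plates. Abbreviation: GI50, concentration required for 50% inhibition of growth. TGI: total growth inhibition.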

Tests used:
Test in all cases: NCI tumour cell line growth inhibition, 48 h
MOLT-4 leukemia = system: MOLT-4 leukemia
MCF7 breast = system: MCF7 breast
HL-60(TB) leukemia = system: HL-60(TB) leukemia
HCT-15 colon = system: HCT-15 colon
DU-145 prostate = system: DU-145 prostate
SF-295 CNS = system: SF-295 CNS
SK-OV-3 ovarian = system: SK-OV-3 ovarian
MDA-MB-231 breast = system: MDA-MB-231 breast
HCT-116 colon = system: HCT-116 colon
HCC-2998 colon = system: HCC-2998 colon
SF-268 CNS = system: SF-268 CNS
CCRF-CEM leukemia = system: CCRF-CEM leukemia
ACHN renal = system: ACHN renal
NCI-H23 lung = system: NCI-H23 lung
SN12C renal = system: SN12C renal
SF-539 CNS = system: SF-539 CNS
SK-MEL-2 melanoma = system: SK-MEL-2 melanoma
SW-620 colon = system: SW-620 colon
KM12 colon = system: KM12 colon
RXF 393 renal = system: RXF 393 renal
U251 CNS = system: U251 CNS
786-0 renal = system: 786-0 renal
HOP-62 NSCLC = system: HOP-62 NSCLC
SR leukemia = system: SR leukemia
OVCAR-4 ovarian = system: OVCAR-4 ovarian
COLO 205 colon = system: COLO 205 colon
OVCAR-8 ovarian = system: OVCAR-8 ovarian
HS 578T breast = system: HS 578T breast
SNB-19 CNS = system: SNB-19 CNS
PC-3 prostate = system: PC-3 prostate
K-562 leukemia = system: K-562 leukemia
OVCAR-5 ovarian = system: OVCAR-5 ovarian
SNB-75 CNS = system: SNB-75 CNS
UACC-62 melanoma = system: UACC-62 melanoma
CAKI-1 renal = system: CAKI-1 renal
RPMI-8226 leukemia = system: RPMI-8226 leukemia
IGROV1 ovarian = system: IGROV1 ovarian
HT29 colon = system: HT29 colon
UO-31 renal = system: UO-31 renal
MALME-3M melanoma = system: MALME-3M melanoma
NCI/ADR-RES ovarian = system: NCI/ADR-RES ovarian
EKVX NSCLC = system: EKVX NSCLC
LOX IMVI melanoma = system: LOX IMVI melanoma
NCI-H522 lung = system: NCI-H522 lung
OVCAR-3 ovarian = system: OVCAR-3 ovarian
MDA-MB-435 = system: MDA-MB-435
NCI-H460 lung = system: NCI-H460 lung
SK-MEL-28 melanoma = system: SK-MEL-28 melanoma
TK-10 renal = system: TK-10 renal
HOP-92 NSCLC = system: HOP-92 NSCLC
A549 NSCLC = system: A549 NSCLC
A498 renal = system: A498 renal
M14 melanoma = system: M14 melanoma
SK-MEL-5 melanoma = system: SK-MEL-5 melanoma
T-47D breast = system: T-47D breast
NCI-H226 lung = system: NCI-H226 lung
UACC-257 melanoma = system: UACC-257 melanoma
BT-549 breast = system: BT-549 breast

COc1ccc(-c2cc3c(C)nc(N)nc3n(C3CCC(OCCO)CC3)c2=O)cn1 (stereo not given)
GI50 (MOLT-4 leukemia): 67.7 nM and 62.6 nM | TGI (MOLT-4 leukemia): > 10000 nM and 7350 nM | GI50 (MCF7 breast): 26.6 nM and 22.8 nM | TGI (MCF7 breast): > 10000 nM and 1030 nM | GI50 (HL-60(TB) leukemia): 34.5 nM and 94.1 nM | TGI (HL-60(TB) leukemia): > 10000 nM and 6380 nM | GI50 (HCT-15 colon): 106 nM and 97.4 nM | TGI (HCT-15 colon): > 6210 nM and 5110 nM | GI50 (DU-145 prostate): 153 nM and 106 nM | TGI (DU-145 prostate): > 10000 nM and 8280 nM | GI50 (SF-295 CNS): 50.1 nM and 40.1 nM | TGI (SF-295 CNS): 326 nM and 275 nM | GI50 (SK-OV-3 ovarian): 44 nM and 81.4 nM | TGI (SK-OV-3 ovarian): 291 nM and 527 nM | GI50 (MDA-MB-231 breast): 96.7 nM and 144 nM | TGI (MDA-MB-231 breast): 792 nM and 1130 nM | GI50 (HCT-116 colon): 243 nM and 222 nM | TGI (HCT-116 colon): > 10000 nM and 18900 nM | GI50 (HCC-2998 colon): 94.1 nM and 130 nM | TGI (HCC-2998 colon): 1800 nM and 1710 nM | GI50 (SF-268 CNS): 78.4 nM and 77.9 nM | TGI (SF-268 CNS): > 4350 nM and 5490 nM | GI50 (CCRF-CEM leukemia): 134 nM and 80.3 nM | TGI (CCRF-CEM leukemia): > 23800 nM | GI50 (ACHN renal): 97.1 nM and 97.3 nM | TGI (ACHN renal): > 6330 nM | GI50 (NCI-H23 lung): 156 nM and 97.7 nM | TGI (NCI-H23 lung): > 6910 nM | GI50 (SN12C renal): 79 nM and 75.8 nM | TGI (SN12C renal): > 100000 nM | GI50 (SF-539 CNS): 131 nM and 126 nM | TGI (SF-539 CNS): 552 nM and 461 nM | GI50 (SK-MEL-2 melanoma): 124 nM and 67.4 nM | TGI (SK-MEL-2 melanoma): 549 nM and 392 nM | GI50 (SW-620 colon): 181 nM and 162 nM | TGI (SW-620 colon): > 10000 nM | GI50 (KM12 colon): 231 nM and 209 nM | TGI (KM12 colon): 3900 nM and 2920 nM | GI50 (RXF 393 renal): 40.3 nM and 46.7 nM | TGI (RXF 393 renal): 289 nM and 309 nM | GI50 (U251 CNS): 181 nM and 162 nM | TGI (U251 CNS): 2750 nM and 1900 nM | GI50 (786-0 renal): 69.4 nM and 60.5 nM | TGI (786-0 renal): 614 nM and 442 nM | GI50 (HOP-62 NSCLC): 99.7 nM and 113 nM | TGI (HOP-62 NSCLC): 2110 nM and 1930 nM | GI50 (SR leukemia): 257 nM and 80.5 nM | TGI (SR leukemia): > 10000 nM and 1440 nM | GI50 (OVCAR-4 ovarian): 140 nM and 114 nM | TGI (OVCAR-4 ovarian): 2060 nM and 841 nM | GI50 (COLO 205 colon): 88.2 nM and 137 nM | TGI (COLO 205 colon): 874 nM and 1140 nM | GI50 (OVCAR-8 ovarian): 141 nM and 128 nM | TGI (OVCAR-8 ovarian): 2360 nM and 1410 nM | GI50 (HS 578T breast): 34.5 nM and 15 nM | TGI (HS 578T breast): 272 nM and 113 nM | GI50 (SNB-19 CNS): 318 nM and 280 nM | TGI (SNB-19 CNS): 2840 nM and 3430 nM | GI50 (PC-3 prostate): 68.7 nM and 22.2 nM | TGI (PC-3 prostate): > 2730 nM and 299 nM | GI50 (K-562 leukemia): 593 nM and 360 nM | TGI (K-562 leukemia): > 100000 nM | GI50 (OVCAR-5 ovarian): 73.4 nM and 48.9 nM | TGI (OVCAR-5 ovarian): 1950 nM and 1020 nM | GI50 (SNB-75 CNS): 15.1 nM and < 11.7 nM | TGI (SNB-75 CNS): 137 nM and 177 nM | GI50 (UACC-62 melanoma): 20 nM and 46 nM | TGI (UACC-62 melanoma): 165 nM and 365 nM | GI50 (CAKI-1 renal): 37.9 nM and 86.6 nM | TGI (CAKI-1 renal): 380 nM and 575 nM | GI50 (RPMI-8226 leukemia): 157 nM and 61.2 nM | TGI (RPMI-8226 leukemia): > 3740 nM and 3270 nM | GI50 (IGROV1 ovarian): 21 nM and 19.9 nM | TGI (IGROV1 ovarian): 98.3 nM and 92 nM | GI50 (HT29 colon): 78.1 nM and 80.9 nM | TGI (HT29 colon): 1830 nM and 747 nM | GI50 (UO-31 renal): 26.5 nM and 16.9 nM | TGI (UO-31 renal): 378 nM and 492 nM | GI50 (MALME-3M melanoma): 35 nM and 19.5 nM | TGI (MALME-3M melanoma): 263 nM and 134 nM | GI50 (NCI/ADR-RES ovarian): 141 nM and 139 nM | TGI (NCI/ADR-RES ovarian): 2060 nM and 1650 nM | GI50 (EKVX NSCLC): 97.1 nM and 46.5 nM | TGI (EKVX NSCLC): 700 nM and 396 nM | GI50 (LOX IMVI melanoma): 111 nM and 88.2 nM | TGI (LOX IMVI melanoma): 1120 nM and 943 nM | GI50 (NCI-H522 lung): 52 nM and 33.7 nM | TGI (NCI-H522 lung): 800 nM and 386 nM | GI50 (OVCAR-3 ovarian): 61.4 nM and 39.5 nM | TGI (OVCAR-3 ovarian): 486 nM and 427 nM | GI50 (MDA-MB-435): 98.5 nM and 84.2 nM | TGI (MDA-MB-435): 941 nM and 564 nM | GI50 (NCI-H460 lung): 62.9 nM and 47.5 nM | TGI (NCI-H460 lung): > 35300 nM | GI50 (SK-MEL-28 melanoma): 51.7 nM and 74 nM | TGI (SK-MEL-28 melanoma): 425 nM and 604 nM | GI50 (TK-10 renal): 26 nM and 26.4 nM | TGI (TK-10 renal): 235 nM and 197 nM | GI50 (HOP-92 NSCLC): 36.2 nM | GI50 (A549 NSCLC): 123 nM and 109 nM | TGI (A549 NSCLC): 959 nM and 489 nM | GI50 (A498 renal): 21.1 nM | TGI (A498 renal): 92.5 nM | GI50 (M14 melanoma): 99 nM and 68.6 nM | TGI (M14 melanoma): 2690 nM and 1050 nM | GI50 (SK-MEL-5 melanoma): 144 nM and 103 nM | TGI (SK-MEL-5 melanoma): 543 nM and 650 nM | GI50 (T-47D breast): 13.1 nM and 21.1 nM | TGI (T-47D breast): 73.5 nM and 147 nM | GI50 (NCI-H226 lung): 74.2 nM and 105 nM | TGI (NCI-H226 lung): > 2190 nM and 946 nM | GI50 (UACC-257 melanoma): 58.6 nM and 42.3 nM | TGI (UACC-257 melanoma): 414 nM and 336 nM | GI50 (BT-549 breast): 62.2 nM and 31.7 nM | TGI (BT-549 breast): 666 nM and 359 nM
